Laboratory results taken from article PMC8812735, “Discovery of triterpenoids as potent dual inhibitors of pancreatic lipase and human carboxylesterase 1” (Journal of Enzyme Inhibition and Medicinal Chemistry, 2022).

What was measured:
[1] = biological target: T1, Pancreatic lipase (PL) (Sus scrofa, UniProt P00591); test: Inhibition of PL-mediated 4-MUO hydrolysis; type: biochemical; conditions: for Inhibition mode PL / Ki / IC50: 4-MUO substrate; for Ki: Lineweaver–Burk second plot; for IC50: mean ± SD (n = 3); for Reversibility of PL inhibition: dose-response curves not affected by pre-incubation times
T1 construct: purchased Sigma Aldrich type II, Lot.SLBN9099V
T1 sequence (P00591 1-450): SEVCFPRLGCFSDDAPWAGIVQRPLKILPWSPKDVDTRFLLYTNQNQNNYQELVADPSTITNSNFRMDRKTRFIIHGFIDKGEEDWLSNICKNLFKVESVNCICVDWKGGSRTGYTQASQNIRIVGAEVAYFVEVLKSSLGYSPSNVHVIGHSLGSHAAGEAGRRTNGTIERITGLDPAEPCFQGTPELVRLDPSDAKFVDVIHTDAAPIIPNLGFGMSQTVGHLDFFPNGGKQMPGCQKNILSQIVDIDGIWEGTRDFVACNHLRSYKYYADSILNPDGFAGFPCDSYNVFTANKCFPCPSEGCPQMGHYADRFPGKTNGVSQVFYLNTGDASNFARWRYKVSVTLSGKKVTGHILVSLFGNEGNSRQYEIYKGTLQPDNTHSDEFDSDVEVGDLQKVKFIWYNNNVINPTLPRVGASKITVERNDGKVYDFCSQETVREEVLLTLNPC
Description: In addition, the background fluorescence in the absence of an enzyme source (PL) (add the same amount of citrate-Na2HPO4 buffer) was measured. […] Then start the reaction by adding 2 µL of 4-MUO probe (3 µM, final concentration). The fluorescence signal of 4-MU (hydrolytic metabolite) was detected by multi-mode microplate reader (SpectraMax M4, Molecular Devices, Urstein, Austria) with continuous oscillation for 20 min and recorded and analysed at 60 s intervals. The excitation wavelength and emission wavelength of 4-MU were set at 340 nm and 460 nm, respectively, and the gain value was 500.
(§1) Subsequently, various concentrations of substrates (selected according to Km) and different concentrations of inhibitors were used to determine the corresponding reaction rate, and the second slope graph of the Lineweaver–Burk diagram was used as a function of the inhibitor to calculate the corresponding inhibition constant (Ki) value. All kinetic data were fitted by the following kinetic equations (a–c), for competitive (a), non-competitive (b) and mixed inhibition (c): (a) V=(VmaxS)/[Km(1+I/Ki)+S] (b) V=(VmaxS)/[(Km+S)×(1+I/Ki)] (c) V=(VmaxS)/[(Km+S)×(1+I/αKi)] where V is the hydrolytic velocity of the reaction, Vmax is the maximum velocity. S and I are substrate (4-MUO, NLMe) and inhibitor (compound 39/41) concentrations, respectively. Ki is the inhibition constant of the tested inhibitor against the target PL and hCES1A; Km is the Michaelis constant (the substrate concentration at half of the Vmax).
All measurements were made in triplicate and the data obtained in the experiment were shown as mean ± SD.

[2] = biological target: T2, hCES1A (Homo sapiens, UniProt P23141); test: Inhibition of hCES1A-mediated NLMe hydrolysis in human liver microsomes; type: biochemical; conditions: for Inhibition mode hCES1A / Ki / IC50: NLMe substrate, HLM; for Ki: Lineweaver–Burk second plot; for IC50: mean ± SD (n = 3), read-out: IC50 (µM) hCES1A; for Reversibility of hCES1A inhibition: dose-response curves not affected by pre-incubation times
T2 construct: tissue Bioreclamation IVT lot No. X008067; host or cells: pooled human liver microsomes from 50 donors
T2 sequence (P23141 18-567): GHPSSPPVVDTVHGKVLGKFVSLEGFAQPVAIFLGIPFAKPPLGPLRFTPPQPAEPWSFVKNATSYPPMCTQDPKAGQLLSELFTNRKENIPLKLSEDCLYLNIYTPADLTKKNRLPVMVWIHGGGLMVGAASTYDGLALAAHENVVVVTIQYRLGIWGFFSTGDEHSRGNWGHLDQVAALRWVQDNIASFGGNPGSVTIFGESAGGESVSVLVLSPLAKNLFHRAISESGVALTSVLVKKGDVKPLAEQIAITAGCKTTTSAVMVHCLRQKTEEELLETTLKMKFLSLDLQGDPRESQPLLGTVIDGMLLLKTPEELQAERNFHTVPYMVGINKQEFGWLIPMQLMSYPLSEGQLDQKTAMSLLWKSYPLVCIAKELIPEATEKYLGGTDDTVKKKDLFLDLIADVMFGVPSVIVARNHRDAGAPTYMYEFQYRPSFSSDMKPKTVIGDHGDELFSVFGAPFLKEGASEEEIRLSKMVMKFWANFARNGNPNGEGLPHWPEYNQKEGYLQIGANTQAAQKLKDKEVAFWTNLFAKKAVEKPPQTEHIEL
Description: N-Alkylated D-luciferin methyl ester (NLMe), a Specific probe for hCES1A[45], was used for assessing the inhibitory effects for triterpenoids, and BNPP was used as a positive inhibitor of hCES1A. […] Then NLMe (2 µL, 0.15 mM) was added to start the reaction. After shaking the reaction in 37 °C incubator for 10 min, 50 µL of reaction solution was removed and mixed with LDR (50 µL) to terminate the reaction. A multi-mode microplate reader was used to detect the luminescence signal of NL (the hydrolysed metabolite of NLMe). The luminescence product of NL was measured at 580 nm (gain: 140). The final volume ratio of DMSO was less than 1% (V/V).
as §1
All measurements were made in triplicate and the data obtained in the experiment were shown as mean ± SD. The IC50 and Ki values of the compounds with strong inhibitory effect were evaluated by nonlinear regression with graphpad prism 7.0 software (GraphPad Software, Inc., La Jolla, CA).

[3] = biological target: dipeptidyl peptidase-IV (DPP-IV) (Homo sapiens, UniProt P27487); test: Inhibition of DPP-IV-mediated GP-BAN hydrolysis; type: biochemical; conditions: substrate: GP-BAN
Sequence of dipeptidyl peptidase-IV (DPP-IV) (P27487 whole entry): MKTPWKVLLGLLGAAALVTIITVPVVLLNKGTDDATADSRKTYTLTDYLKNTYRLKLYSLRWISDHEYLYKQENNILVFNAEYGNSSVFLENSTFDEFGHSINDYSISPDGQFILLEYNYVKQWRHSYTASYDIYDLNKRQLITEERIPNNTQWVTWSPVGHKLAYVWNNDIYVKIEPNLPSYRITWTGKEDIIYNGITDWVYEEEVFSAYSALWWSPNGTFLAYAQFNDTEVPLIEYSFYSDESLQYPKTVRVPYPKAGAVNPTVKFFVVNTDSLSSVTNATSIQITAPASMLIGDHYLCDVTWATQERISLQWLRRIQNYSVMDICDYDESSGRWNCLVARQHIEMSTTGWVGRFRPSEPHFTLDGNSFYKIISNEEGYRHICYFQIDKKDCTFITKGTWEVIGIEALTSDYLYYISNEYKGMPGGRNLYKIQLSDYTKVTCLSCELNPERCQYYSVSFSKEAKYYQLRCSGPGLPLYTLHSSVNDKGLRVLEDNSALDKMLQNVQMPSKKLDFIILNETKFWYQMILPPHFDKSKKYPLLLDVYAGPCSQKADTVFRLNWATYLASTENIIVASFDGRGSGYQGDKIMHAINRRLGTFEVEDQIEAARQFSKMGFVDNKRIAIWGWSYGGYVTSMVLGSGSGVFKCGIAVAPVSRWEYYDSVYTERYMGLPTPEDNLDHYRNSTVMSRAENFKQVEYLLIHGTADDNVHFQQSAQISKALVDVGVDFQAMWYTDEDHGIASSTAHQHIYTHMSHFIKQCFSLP
Description: The details for DPP-IV inhibition has been reported previously[49]^,[50]. The fluorescent signal of the hydrolytic product (BAN) was measured by a fluorescence microplate reader at an excitation wavelength of 430 nm, an emission wavelength of 535 nm (gain = 500).

[4] = test system: 3T3-L1 cells; test: Cytotoxicity assay (CCK-8) in 3T3-L1 cells; type: cell-based; conditions: CCK-8, 48 h, 0–100 µM
Description: The effect of compounds 39 and 41 on cell viability of the 3T3-L1cells was measured using Cell Counting Kit-8 (Dalian Meilun Biotechnology Co., Ltd., Dalian, China). Briefly, 3T3-L1 cells (5 × 10^4/mL, 100 µL) were seeded in the 96-well plate, After 24 h incubation, then the cells were treated with different concentrations of compounds 39 and 41 (0–100 µM) for another 48 h. Then, CCK-8 (10%, v/v, 100 µL) was added to each well and incubated at 37 °C for additional 2 h. The absorbance was determined by microplate reader at 450 nm. The percentage of cell viability was calculated towards control. Each condition included replicate wells with at least four independent repeats.

Row | SMILES | Inhibition mode PL [1] | Ki [1] [µM] | IC50 [1] [µM] | Reversibility of PL inhibition [1] | Inhibition mode hCES1A [2] | Ki [2] [µM] | IC50 [2] [µM] | Reversibility of hCES1A inhibition [2] | IC50 [3] [µM] | concentration below which almost non-toxic to 3T3-L1 (cell viability) [4]
1 | CC1(C)CCC2(C(=O)O)CCC3(C)C(=CCC4C5(C)C=C(O)C(=O)C(C)(C)C5CCC43C)C2C1 (centres unmarked) [Compound 39] | Mixed | 1.45 | 2.13 ± 0.19 | reversible inhibitors | Competitive | 0.043 | 0.055 ± 0.006 | reversible inhibitors | > 100 | below 20 µM
2 | CC(=O)OC1CCC2(C)C(CCC3(C)C2CC=C2C4C(C)C(C)CCC4(C(=O)O)CCC23C)C1(C)C (centres unmarked) [Compound 41] | Mixed | 0.58 | 0.75 ± 0.12 | reversible inhibitors | Competitive | 0.019 | 0.014 ± 0.002 | reversible inhibitors | > 100 | < 10 µM
